Laboratory results taken from ChEMBL document CHEMBL4007384, “Synthesis and optimization of furano[3,2-d]pyrimidines as selective spleen tyrosine kinase (Syk) inhibitors” (Bioorg Med Chem Lett, 2016).

Assays:
[1] = target: Tyrosine-protein kinase JAK2 (Homo sapiens, UniProt O60674); assay: Inhibition of JAK2 (unknown origin) after 60 mins by TR-FRET assay
[2] = target: Mitogen-activated protein kinase 8 (Homo sapiens, UniProt P45983); assay: Inhibition of JNK1 (unknown origin) after 60 mins by TR-FRET assay
Sequence of Mitogen-activated protein kinase 8 (P45983 whole entry): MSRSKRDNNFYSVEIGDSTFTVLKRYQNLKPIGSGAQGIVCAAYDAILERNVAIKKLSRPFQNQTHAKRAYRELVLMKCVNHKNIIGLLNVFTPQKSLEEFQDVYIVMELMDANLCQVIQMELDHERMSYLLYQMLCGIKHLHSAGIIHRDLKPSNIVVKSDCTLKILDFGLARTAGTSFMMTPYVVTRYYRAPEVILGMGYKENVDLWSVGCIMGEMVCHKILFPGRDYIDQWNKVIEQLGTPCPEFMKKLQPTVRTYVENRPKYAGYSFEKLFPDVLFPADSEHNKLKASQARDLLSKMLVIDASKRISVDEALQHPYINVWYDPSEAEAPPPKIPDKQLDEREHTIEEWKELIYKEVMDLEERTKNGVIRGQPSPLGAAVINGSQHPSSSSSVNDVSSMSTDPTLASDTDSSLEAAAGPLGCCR

[3] = target: T1, Mitogen-activated protein kinase kinase kinase kinase 2 (Homo sapiens, UniProt Q12851); assay: Inhibition of MAP4K2 (unknown origin) after 60 mins by TR-FRET assay
T1 sequence (Q12851 whole entry): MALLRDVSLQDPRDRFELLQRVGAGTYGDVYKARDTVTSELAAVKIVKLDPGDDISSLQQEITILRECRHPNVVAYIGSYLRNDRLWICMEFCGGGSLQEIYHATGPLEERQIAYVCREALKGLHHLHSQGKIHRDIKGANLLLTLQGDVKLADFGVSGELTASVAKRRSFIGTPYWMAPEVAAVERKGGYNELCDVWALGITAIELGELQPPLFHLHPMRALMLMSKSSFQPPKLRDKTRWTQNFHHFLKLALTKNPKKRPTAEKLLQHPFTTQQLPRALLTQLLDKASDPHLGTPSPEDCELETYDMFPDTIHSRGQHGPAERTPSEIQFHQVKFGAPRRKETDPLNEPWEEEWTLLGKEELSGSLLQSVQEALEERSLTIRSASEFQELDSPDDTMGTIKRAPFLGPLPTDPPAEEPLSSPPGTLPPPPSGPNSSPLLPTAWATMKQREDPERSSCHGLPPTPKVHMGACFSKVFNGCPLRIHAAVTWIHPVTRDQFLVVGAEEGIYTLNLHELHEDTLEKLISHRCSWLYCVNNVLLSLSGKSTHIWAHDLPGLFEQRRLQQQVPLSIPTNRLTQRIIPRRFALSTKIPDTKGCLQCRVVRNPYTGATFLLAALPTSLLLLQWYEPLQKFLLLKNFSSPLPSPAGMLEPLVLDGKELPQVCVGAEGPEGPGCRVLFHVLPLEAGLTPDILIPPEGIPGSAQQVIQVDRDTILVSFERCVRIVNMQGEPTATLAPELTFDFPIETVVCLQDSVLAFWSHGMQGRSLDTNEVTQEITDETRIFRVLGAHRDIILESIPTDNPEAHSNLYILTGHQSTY

[4] = target: T2, Serine/threonine-protein kinase Nek2 (Homo sapiens, UniProt P51955); assay: Inhibition of NEK2 (unknown origin) after 60 mins by TR-FRET assay
T2 sequence (P51955 whole entry): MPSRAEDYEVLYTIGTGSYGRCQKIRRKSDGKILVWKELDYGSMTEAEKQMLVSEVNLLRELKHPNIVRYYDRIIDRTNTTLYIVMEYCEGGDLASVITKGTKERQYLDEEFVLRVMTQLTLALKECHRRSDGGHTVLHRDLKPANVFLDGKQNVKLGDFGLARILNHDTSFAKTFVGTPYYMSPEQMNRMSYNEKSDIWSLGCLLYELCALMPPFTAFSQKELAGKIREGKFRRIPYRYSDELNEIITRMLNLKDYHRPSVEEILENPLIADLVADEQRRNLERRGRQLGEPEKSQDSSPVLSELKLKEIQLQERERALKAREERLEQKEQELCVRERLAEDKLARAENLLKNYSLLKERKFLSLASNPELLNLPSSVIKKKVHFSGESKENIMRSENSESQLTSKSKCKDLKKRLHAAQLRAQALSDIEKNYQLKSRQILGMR

[5] = target: Protein kinase C theta type (Homo sapiens, UniProt Q04759); assay: Inhibition of PKCtheta (unknown origin) after 60 mins by TR-FRET assay
Sequence of Protein kinase C theta type (Q04759 whole entry): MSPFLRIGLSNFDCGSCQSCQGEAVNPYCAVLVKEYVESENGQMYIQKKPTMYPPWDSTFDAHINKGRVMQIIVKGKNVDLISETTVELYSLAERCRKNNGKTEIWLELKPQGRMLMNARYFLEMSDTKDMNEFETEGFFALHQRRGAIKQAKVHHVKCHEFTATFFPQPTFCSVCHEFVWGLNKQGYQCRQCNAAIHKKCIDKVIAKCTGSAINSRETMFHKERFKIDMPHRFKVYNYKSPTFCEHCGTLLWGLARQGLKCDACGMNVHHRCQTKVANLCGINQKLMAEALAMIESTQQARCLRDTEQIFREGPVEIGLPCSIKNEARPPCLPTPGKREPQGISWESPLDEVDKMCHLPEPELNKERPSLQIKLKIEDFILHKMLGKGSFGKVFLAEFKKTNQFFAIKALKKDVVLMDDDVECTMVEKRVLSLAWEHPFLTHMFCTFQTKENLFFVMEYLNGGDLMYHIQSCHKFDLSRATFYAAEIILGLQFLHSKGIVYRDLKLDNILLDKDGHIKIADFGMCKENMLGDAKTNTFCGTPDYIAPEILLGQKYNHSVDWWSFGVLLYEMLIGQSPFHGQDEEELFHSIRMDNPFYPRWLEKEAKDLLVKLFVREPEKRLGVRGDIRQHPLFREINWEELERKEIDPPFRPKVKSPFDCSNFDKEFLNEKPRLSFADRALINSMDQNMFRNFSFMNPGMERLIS

[6] = target: Proto-oncogene tyrosine-protein kinase receptor Ret (Homo sapiens, UniProt P07949); assay: Inhibition of RET (unknown origin) after 60 mins by TR-FRET assay
Sequence of Proto-oncogene tyrosine-protein kinase receptor Ret (P07949 whole entry): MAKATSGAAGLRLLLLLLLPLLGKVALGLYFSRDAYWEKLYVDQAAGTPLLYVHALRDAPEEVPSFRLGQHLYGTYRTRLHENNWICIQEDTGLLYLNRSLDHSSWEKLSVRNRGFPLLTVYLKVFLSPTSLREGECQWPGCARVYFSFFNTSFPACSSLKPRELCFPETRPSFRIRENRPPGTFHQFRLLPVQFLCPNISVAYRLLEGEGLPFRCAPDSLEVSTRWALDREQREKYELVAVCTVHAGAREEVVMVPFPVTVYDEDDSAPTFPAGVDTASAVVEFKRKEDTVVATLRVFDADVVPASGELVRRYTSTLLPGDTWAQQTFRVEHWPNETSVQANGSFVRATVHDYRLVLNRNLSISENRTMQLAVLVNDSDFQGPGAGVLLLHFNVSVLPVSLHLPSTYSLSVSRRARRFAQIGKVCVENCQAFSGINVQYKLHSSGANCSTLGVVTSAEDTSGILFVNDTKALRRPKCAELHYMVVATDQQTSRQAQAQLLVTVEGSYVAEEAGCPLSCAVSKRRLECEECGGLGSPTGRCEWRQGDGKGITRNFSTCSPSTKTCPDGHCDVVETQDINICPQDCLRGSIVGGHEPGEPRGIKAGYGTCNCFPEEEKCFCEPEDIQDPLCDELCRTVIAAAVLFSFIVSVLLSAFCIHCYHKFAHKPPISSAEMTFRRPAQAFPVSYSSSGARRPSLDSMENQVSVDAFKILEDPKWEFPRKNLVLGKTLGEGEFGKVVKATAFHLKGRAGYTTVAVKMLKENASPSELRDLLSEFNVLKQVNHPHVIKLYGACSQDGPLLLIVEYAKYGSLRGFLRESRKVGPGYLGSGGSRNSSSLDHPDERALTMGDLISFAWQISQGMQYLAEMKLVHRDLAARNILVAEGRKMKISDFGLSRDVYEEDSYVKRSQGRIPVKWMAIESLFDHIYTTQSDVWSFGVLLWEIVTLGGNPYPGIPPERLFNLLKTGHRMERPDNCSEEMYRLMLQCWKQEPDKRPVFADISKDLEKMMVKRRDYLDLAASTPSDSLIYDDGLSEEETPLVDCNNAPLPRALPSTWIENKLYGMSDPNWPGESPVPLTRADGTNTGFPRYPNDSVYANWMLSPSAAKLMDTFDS

[7] = target: T3, Serine/threonine-protein kinase TAO2 (Homo sapiens, UniProt Q9UL54); assay: Inhibition of TAOK2 (unknown origin) after 60 mins by TR-FRET assay
T3 sequence (Q9UL54 whole entry): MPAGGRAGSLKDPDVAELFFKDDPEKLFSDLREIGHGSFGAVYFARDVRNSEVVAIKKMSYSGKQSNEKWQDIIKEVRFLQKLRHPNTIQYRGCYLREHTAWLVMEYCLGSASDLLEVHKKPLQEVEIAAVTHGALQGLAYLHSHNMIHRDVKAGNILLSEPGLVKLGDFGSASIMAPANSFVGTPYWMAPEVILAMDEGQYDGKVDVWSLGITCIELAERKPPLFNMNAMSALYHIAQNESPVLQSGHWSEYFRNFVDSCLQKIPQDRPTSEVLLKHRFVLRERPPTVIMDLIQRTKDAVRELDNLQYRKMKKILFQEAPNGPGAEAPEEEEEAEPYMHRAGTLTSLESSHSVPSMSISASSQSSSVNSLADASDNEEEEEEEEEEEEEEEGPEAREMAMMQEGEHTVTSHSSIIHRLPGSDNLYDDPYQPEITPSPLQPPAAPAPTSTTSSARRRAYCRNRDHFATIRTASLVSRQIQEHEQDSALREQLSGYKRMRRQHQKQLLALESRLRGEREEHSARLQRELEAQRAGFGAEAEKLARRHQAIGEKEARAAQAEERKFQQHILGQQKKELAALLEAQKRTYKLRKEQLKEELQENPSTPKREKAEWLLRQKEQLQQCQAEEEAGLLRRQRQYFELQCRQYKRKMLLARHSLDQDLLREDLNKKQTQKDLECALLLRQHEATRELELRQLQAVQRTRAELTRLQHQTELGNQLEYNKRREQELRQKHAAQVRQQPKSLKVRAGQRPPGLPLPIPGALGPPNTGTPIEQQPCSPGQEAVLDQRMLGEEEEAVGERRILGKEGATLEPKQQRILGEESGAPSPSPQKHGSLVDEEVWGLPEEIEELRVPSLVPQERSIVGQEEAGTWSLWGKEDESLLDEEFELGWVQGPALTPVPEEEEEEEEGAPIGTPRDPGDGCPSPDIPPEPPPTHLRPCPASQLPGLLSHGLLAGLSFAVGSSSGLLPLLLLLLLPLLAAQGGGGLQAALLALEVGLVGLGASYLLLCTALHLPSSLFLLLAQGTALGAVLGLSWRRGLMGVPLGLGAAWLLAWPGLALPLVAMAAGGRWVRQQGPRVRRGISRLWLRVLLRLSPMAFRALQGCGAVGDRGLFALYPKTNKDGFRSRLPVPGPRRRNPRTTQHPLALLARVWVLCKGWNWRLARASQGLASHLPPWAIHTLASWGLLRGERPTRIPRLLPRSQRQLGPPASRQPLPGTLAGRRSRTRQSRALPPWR

Sequence of Tyrosine-protein kinase JAK2 (O60674 whole entry): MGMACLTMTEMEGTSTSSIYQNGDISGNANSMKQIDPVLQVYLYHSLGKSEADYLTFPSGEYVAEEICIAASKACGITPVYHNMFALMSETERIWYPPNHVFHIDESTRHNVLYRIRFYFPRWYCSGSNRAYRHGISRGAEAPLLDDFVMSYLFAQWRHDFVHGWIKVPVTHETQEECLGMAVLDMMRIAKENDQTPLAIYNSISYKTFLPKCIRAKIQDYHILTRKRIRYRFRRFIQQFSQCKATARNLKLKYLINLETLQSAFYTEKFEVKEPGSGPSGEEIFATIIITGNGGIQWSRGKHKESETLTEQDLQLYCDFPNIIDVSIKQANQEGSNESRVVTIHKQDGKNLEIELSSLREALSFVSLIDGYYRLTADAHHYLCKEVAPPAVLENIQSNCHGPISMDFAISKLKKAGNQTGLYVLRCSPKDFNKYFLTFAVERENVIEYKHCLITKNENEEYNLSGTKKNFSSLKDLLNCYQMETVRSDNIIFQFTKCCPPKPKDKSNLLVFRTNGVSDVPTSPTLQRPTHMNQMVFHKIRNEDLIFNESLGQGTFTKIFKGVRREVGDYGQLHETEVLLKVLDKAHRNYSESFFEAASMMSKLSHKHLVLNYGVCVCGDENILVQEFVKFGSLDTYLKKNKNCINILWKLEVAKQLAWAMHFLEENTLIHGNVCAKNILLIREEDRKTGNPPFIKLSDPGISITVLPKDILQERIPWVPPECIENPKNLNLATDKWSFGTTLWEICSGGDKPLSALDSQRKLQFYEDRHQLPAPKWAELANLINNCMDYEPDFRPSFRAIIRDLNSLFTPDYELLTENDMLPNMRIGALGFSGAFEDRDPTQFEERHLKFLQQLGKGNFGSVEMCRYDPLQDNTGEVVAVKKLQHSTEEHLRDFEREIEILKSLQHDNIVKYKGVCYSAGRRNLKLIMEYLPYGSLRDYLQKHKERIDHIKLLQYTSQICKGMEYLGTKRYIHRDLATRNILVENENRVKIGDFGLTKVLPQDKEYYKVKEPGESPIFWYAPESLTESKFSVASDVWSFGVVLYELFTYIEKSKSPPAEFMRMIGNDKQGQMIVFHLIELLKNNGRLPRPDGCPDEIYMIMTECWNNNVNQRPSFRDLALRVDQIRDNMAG

Compound | IC50 [1] | IC50 [2] | IC50 [3] | IC50 [4] | IC50 [5] | IC50 [6] | IC50 [7]
FC(F)(F)CNc1nc(Nc2ccc(N3CCOCC3)c(Cl)c2)nc2ccoc12 | 2.32 µM | 0.513 µM | 1.57 µM | > 10 µM | > 10 µM | 1.51 µM | > 10 µM
FC(F)(F)CNc1nc(Nc2ccc3cn[nH]c3c2)nc2ccoc12 |  | 2.89 µM |  | > 10 µM |  | 3.5 µM | > 10 µM
Cc1n[nH]c2cc(Nc3nc(NC4CC4)c4occc4n3)ccc12 | 4.17 µM | 2.75 µM | 6.24 µM | > 10 µM | > 10 µM |  | > 10 µM
CC1(C)OCC(=O)Nc2cc(Nc3nc(NCC(F)(F)F)c4occc4n3)ccc21 | 0.236 µM | 2.67 µM | 2.94 µM | > 10 µM | > 10 µM | 0.379 µM | 8.52 µM
